Common to all, as to assay: relative viability (nuclei count vs DMSO), 5 days (fraction); higher = more cells survive
Compound in assay [1]: C1=CC2=C(C=C(C(=C2N=C1)O)N=NC3=CC4=C(C=C3)C=C(C=C4)S(=O)(=O)O)S(=O)(=O)O + N=C(N)NC(=N)NCCc1ccccc1 [Phenformin] (partner 250 µM)
The method, boiled down: (§1)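 Lung cancer cell lines in 1536-well plates got either a single drug or a fixed anchor-drug dose together with five library-drug doses (not always all listed) in √10 steps, by pin tool, on the day after seeding. Nuclei were counted after 5 days, and relative viability is the treated-to-vehicle ratio of nuclei counts. Values are medians of duplicate plates.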

Compound in assay [2]: C1=CC2=C(C=C(C(=C2N=C1)O)N=NC3=CC4=C(C=C3)C=C(C=C4)S(=O)(=O)O)S(=O)(=O)O + CC(=O)c1c(C)c2cnc(Nc3ccc(N4CCNCC4)cn3)nc2n(C2CCCC2)c1=O [Palbociclib] (partner 0.5 µM)
The method, boiled down: as §1

Compound in assay [3]: C1=CC2=C(C=C(C(=C2N=C1)O)N=NC3=CC4=C(C=C3)C=C(C=C4)S(=O)(=O)O)S(=O)(=O)O + Cc1nc(NC(=O)N2CCC[C@H]2C(N)=O)sc1-c1ccnc(C(C)(C)C(F)(F)F)c1 [Alpelisib] (partner 2 µM)
The method, boiled down:
as §1

Compound in assay [4]: C1=CC2=C(C=C(C(=C2N=C1)O)N=NC3=CC4=C(C=C3)C=C(C=C4)S(=O)(=O)O)S(=O)(=O)O + CCNC(=O)c1noc(-c2cc(C(C)C)c(O)cc2O)c1-c1ccc(CN2CCOCC2)cc1 [Luminespib] (partner 0.01 µM)
The method, boiled down:
as §1

Consider UMC-11, for which the relative viability was 0.326 in assay [1] (first compound 0.08 µM); 0.31 in assay [1] (first compound 0.253 µM); 0.336 in assay [1] (first compound 0.8 µM); 0.345 in assay [1] (first compound 2.53 µM); 0.338 in assay [1] (first compound 8 µM); 0.325 in assay [2] (first compound 0.08 µM). In addition, the relative viability was 0.329 in assay [2] (first compound 0.253 µM); 0.326 in assay [2] (first compound 0.8 µM); 0.339 in assay [2] (first compound 2.53 µM); 0.324 in assay [2] (first compound 8 µM); 1.12 in assay [3] (first compound 0.08 µM); 0.954 in assay [3] (first compound 0.253 µM). Also, the relative viability was determined as 0.918 in assay [3] (first compound 0.8 µM); 0.88 in assay [3] (first compound 2.53 µM); 0.824 in assay [3] (first compound 8 µM); 1.14 in assay [4] (first compound 0.08 µM); 1.04 in assay [4] (first compound 0.253 µM); 0.862 in assay [4] (first compound 0.8 µM). For the same cell line, the relative viability in assay [4] (first compound 2.53 µM) turned out to be 0.992; in assay [4] (first compound 8 µM), 1.02.

The values are drawn from the supplement of paper PMC10307832.
